16 compounds from US12479794B2, “Acetophenone oxime compound and application thereof” (Medshine Discovery Inc., priority 2020, dated 2025) can be followed below.

Structures are written as SMILES. Structures can show the parent of a compound that is named as a salt. Where two headings read alike, the source gives them in different places.

For one data set, the target named is T1, S1P1 (Homo sapiens, UniProt P21453).
T1 construct: host or cells: U2OS
Nature of the data set: In vitro agonistic activity on S1P1, U2OS-EDG1 cells, LiveBLAzer FRET B/G. The class given is cell-based. The settings on record: for Emax: % Effect. The method, then:
Assay Example 1: In Vitro Evaluation of the Agonistic Activity of the Compounds of the Present Disclosure on S1P1
Object of the assay: To detect the agonistic activity of compounds on S1P1
• 1. Cells U2OS-EDG1 (Batch No.: Invitrogen-K1520) were taken out of a liquid nitrogen tank and placed in a 37° C. water bath to thaw quickly; • 2. The cell suspension was aspirated into a 15 ml centrifuge tube, resuspended in 5 ml of preheated medium, and centrifuged at 1000 rpm for 5 min; • 3. The supernatant was discarded. The cells were resuspended in 10 ml of medium, transferred into a T75 culture flask, and cultivated in an incubator with 5% CO2 at 37° C. II. Agonist Assay • 1. The compounds were diluted to working concentrations, and serially diluted 3-fold by Echo 555 (manufacturer: Labcyte) to obtain 10 concentrations; 200 nL of each concentration of the compound was transferred to a cell plate and centrifuged at 1000 rpm for 15 seconds; • 2. Culture medium was aspirated from the culture flask; 4 mL of Dulbecco's phosphate buffer (DPBS, supplier: Coring, item No.: 21-031-CVR, batch No.: 03318006) was added, and the residual serum was washed away; 2 mL of trypsin was added; The mixture was incubated in an incubator at 37° C. for 2 min, and the cells were digested; 10 mL of seeding medium was added to resuspend the cells; 0.6 mL of cell suspension was taken out and counted; • 3. The density of cells was adjusted to 1.88E+05 cells/mL using seeding medium, with 40 μL per well (7500\well); 40 μL of FreeStyle™ Expression medium was added around the cell plate; The plate was let stand at room temperature for 15 min and incubated at 37° C. with 5% CO2 for 20 hours. III. Signal Detection • 1. LiveBLAzer™-FRET B/G Substrate (CCF4-AM) assay reagents were formulated according to the instructions; • 2. 8 μL of 6×Substrate Mixture was added to each well of the cell plate; The plate was centrifuged at 1000 rpm for 15 seconds, covered with a film, and incubated at 23° C. for 2 hours; The cell plate was subjected to Envision […] detection. IV. Data Analysis • 1. The raw data were converted into % Effect by using an equation, and the EC50 value can be obtained by curve fitting with four parameters [“log(agonist) vs. response—Variable slope” model in GraphPad Prism]; • 2. Calculation formula: Ratio=(460 nm−blank)/(535 nm−blank) % Effect=(SampleRatio−Ave LCRatio)/(Ave HCRatio−Ave LCRatio)×100%

Data set [1] can be described thus: Pharmacokinetic evaluation in SD rats (iv and oral). The class given is in vivo, Sprague Dawley rats. The settings on record: male, Sprague-Dawley, rat, plasma; for half-life: read-out: Half life T1/2 (PO) (converted); for clearance: read-out: Clearance rate CL; for Vd: read-out: Distribution in tissue Vdss; for bioavailability: read-out: Bioavailability F; for Cmax: read-out: Peak concentration Cmax. The method, then:
Assay Example 2: Pharmacokinetic Evaluation of Compounds in Rats
Object of the assay: To evaluate the in vivo pharmacokinetics of the compounds in SD rats
Sprague Dawley rats (male, 200-300 g, 7-9 weeks old, Shanghai SLAC)
The pharmacokinetic characteristics of the compounds in rodents after intravenous injection and oral administration were assayed according to the standard protocol. In the assay, the candidate compounds were formulated into clear solutions and administered to rats by single intravenous injection and oral administration. The vehicle for intravenous injection and oral administration was DMSO and 10% hydroxypropyl β-cyclodextrin in water (DMSO:10% hydroxypropyl β-cyclodextrin in water=5:95). Whole blood samples were collected within 48 hours, and centrifuged at 3000 g for 15 minutes. The supernatant was separated to give plasma samples. 4 times the volume of acetonitrile solution containing internal standard was added to precipitate protein. The resulting mixture was centrifuged and the supernatant was taken out. An equal volume of water was added and the mixture was centrifuged. The supernatant was taken out, and injected as a sample to quantitatively analyze the plasma drug concentration by LC-MS/MS analysis method. The pharmacokinetic parameters, such as peak concentration, time to peak, clearance rate, half-life, area under drug-time curve, bioavailability, etc., were calculated.

Setting [2] is: intravenous, iv 1.0, po 2.0 mg/kg.
The mark [3] stands for this setting: po, 2 mg/kg, iv 1.0, po 2.0 mg/kg, PO, read-out: Area under drug-time curve AUC0-last PO.

T1 sequence (P21453 whole entry): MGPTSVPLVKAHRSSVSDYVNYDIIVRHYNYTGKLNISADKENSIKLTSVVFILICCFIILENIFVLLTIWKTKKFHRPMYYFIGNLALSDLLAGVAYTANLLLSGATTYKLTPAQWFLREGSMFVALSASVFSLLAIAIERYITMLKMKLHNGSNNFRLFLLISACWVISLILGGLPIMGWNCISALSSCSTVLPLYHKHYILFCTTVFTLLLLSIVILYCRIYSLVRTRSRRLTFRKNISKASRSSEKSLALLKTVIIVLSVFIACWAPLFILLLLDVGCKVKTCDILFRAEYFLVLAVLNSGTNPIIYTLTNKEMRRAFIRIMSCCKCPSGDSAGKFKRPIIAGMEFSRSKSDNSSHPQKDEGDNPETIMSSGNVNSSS

A word on the EC50: it is the concentration at which the effect is half-maximal. The low end stands for greater potency, the high end for weaker potency. As a reminder, the Emax is the size of the effect at its maximum, as opposed to the concentration needed. On S1P1, `CC(=NOCc1ccc(OC(C)C)c(C(F)(F)F)c1)c1ccc2c(c1)CCC2N1CC(C(=O)O)C1` (single isomer, unassigned) [Compound 32A] registered an EC50 of 3.84 nM and an Emax of 101%. Moreover, in data set [1] (intravenous, 1 mg/kg, iv 1.0 mg/kg only (head prints PO)), the half-life was 7.5 h. For the same compound, in data set [1] (iv, 1 mg/kg, iv 1.0 mg/kg, read-out: Area under drug-time curve AUC0-last iv), the AUC(0-t) is 6.84 µM·h. For the same compound, in data set [1] (iv, 1 mg/kg, iv 1.0 mg/kg), the clearance was 4.5 mL/min/kg and the Vd is 2.78 L/kg.
At S1P1, `C/C(=N\OCc1ccc(C2CCCCC2)c(C(F)(F)F)c1)c1ccc2c(c1)CC(NCCC(=O)O)C2` (stereo not drawn) [Compound 1 trifluoroacetate] showed an EC50 of 41.6 nM and an Emax of 88.4%.
What is called bioavailability is dose-corrected exposure relative to a reference, in per cent. At S1P1, `C/C(=N\OCc1ccc(C2CCCCC2)c(C(F)(F)F)c1)c1ccc2c(c1)CCC2NCC1(C(=O)O)CC1` (stereo not drawn) [Compound 3 trifluoroacetate] showed an EC50 of 5.77 nM and an Emax of 95%. For the same compound, in data set [1] (iv 1.4, po 2.7 mg/kg, PO, read-out: Area under drug-time curve AUC0-last PO), the AUC(0-t) was found to be 7.05 µM·h. Moreover, in data set [1] (iv 1.4, po 2.7 mg/kg, PO), the half-life was 11.3 h. Further, in data set [1] (iv 1.4, po 2.7 mg/kg), the bioavailability is 59.3%, the clearance was found to be 6.87 mL/min/kg, the Vd is 5.47 L/kg and the Cmax was 393 nM.
With `C/C(=N\OCc1ccc(OC(C)C)c(C(F)(F)F)c1)c1ccc2c(c1)CCC2NCC(=O)O` (stereo not drawn) [Compound 10 hydrochloride], on S1P1, the EC50 is 57.2 nM and the Emax stood at 84.2%.
On S1P1, `C/C(=N\OCc1ccc(C2CCCCC2)c(C(F)(F)F)c1)c1ccc2c(c1)CCC2N(C)CCC(=O)O` (stereo not drawn) [Compound 11 trifluoroacetate] gave an EC50 of 4.97 nM and an Emax of 97.4%. Besides, the AUC(0-t) in data set [1] (iv 1.2, po 2.4 mg/kg, PO, read-out: Area under drug-time curve AUC0-last PO) is 11.3 µM·h. Besides, the half-life in data set [1] (iv 1.2, po 2.4 mg/kg, PO) is 9.08 h. Also, in data set [1] (iv 1.2, po 2.4 mg/kg), the bioavailability amounted to 64%, the clearance is 4.24 mL/min/kg, the Vd was determined as 3.32 L/kg and the Cmax is 605 nM.
At S1P1, `C/C(=N\OCc1ccc(OCC(C)C)c(C(F)(F)F)c1)c1ccc2c(c1)CCC2NCC1(C(=O)O)CC1` (stereo not drawn) [Compound 13 hydrochloride] returned a concentration giving a half-maximal response (EC50) of 14.1 nM and an Emax of 102%.
The corresponding values for `C/C(=N\OCc1ccc(OCC2CC2)c(C(F)(F)F)c1)c1ccc2c(c1)CCC2NCC1(C(=O)O)CC1` (stereo not drawn) [Compound 14 hydrochloride] are 27.4 nM and 113%.
For `C/C(=N\OCc1ccc(C2CCCCC2)c(C(F)(F)F)c1)c1ccc2c(c1)CCC2NCCC(=O)O` (stereo not drawn) [Compound 20] the same measures were 8.92 nM and 51%.
At S1P1, `C/C(=N\OCc1ccc(OCC2CC2)c(C(F)(F)F)c1)c1ccc2c(c1)CCC2N(C)CCC(=O)O` (stereo not drawn) [Compound 21] displayed an EC50 of 12.3 nM and an Emax of 106%. Also, in data set [1] (setting [2]), the clearance is 5.43 mL/min/kg and the Vd worked out at 2.05 L/kg. Besides, in data set [1] (iv 1.0, po 2.0 mg/kg), the bioavailability worked out at 53.2% and the Cmax was 486 nM. Moreover, the AUC(0-t) in data set [1] (setting [3]) was 6.13 µM·h.
On S1P1, `C/C(=N\OCc1ccc(OCC(C)C)c(C(F)(F)F)c1)c1ccc2c(c1)CCC2N(C)CCC(=O)O` (stereo not drawn) [Compound 22 formate] gave an EC50 of 19.2 nM and an Emax of 107%.
For `C/C(=N\OCc1ccc(OC(F)F)c(C(F)(F)F)c1)c1ccc2c(c1)CCC2N1CC(C(=O)O)C1` (stereo not drawn) [Compound 28] the same measures were 23.1 nM and 121%.
As for `C/C(=N\OCc1ccc(OCC(C)C)c(C(F)(F)F)c1)c1ccc2c(c1)CCC2N1CC(C(=O)O)C1` (stereo not drawn) [Compound 29], at S1P1, the EC50 amounted to 8.62 nM and the Emax is 103%. In data set [1] (setting [2]), the clearance stood at 3.68 mL/min/kg and the Vd came to 2.24 L/kg. Also, in data set [1] (iv 1.0, po 2.0 mg/kg), the bioavailability is 59.4% and the Cmax amounted to 615 nM. The AUC(0-t) in data set [1] (setting [3]) was 9.52 µM·h.
Consider `C/C(=N\OCc1ccc(C2CCCCC2)c(C(F)(F)F)c1)c1ccc2c(c1)CCC2N1CC(C(=O)O)C1` (stereo not drawn) [Compound 30], for which, on S1P1, the midpoint of the response, the EC50, lay at 16.5 nM and the Emax worked out at 63.4%. Also, in data set [1] (setting [2]), the clearance came out at 3.93 mL/min/kg and the Vd is 4.19 L/kg. In addition, in data set [1] (iv 1.0, po 2.0 mg/kg), the bioavailability turned out to be 62.1% and the Cmax stood at 478 nM. In addition, in data set [1] (setting [3]), the AUC(0-t) stood at 7.54 µM·h.
On S1P1, `C/C(=N\OCc1ccc(OC2CCCC2)c(C(F)(F)F)c1)c1ccc2c(c1)CCC2N1CC(C(=O)O)C1` (stereo not drawn) [Compound 31] yielded an EC50 of 10.3 nM and an Emax of 105%. Further, in data set [1] (setting [2]), the clearance worked out at 2.87 mL/min/kg and the Vd was found to be 0.88 L/kg. In addition, in data set [1] (iv 1.0, po 2.0 mg/kg), the bioavailability worked out at 80.9% and the Cmax worked out at 1660 nM. Also, the AUC(0-t) in data set [1] (setting [3]) came out at 18.6 µM·h. For the same compound, the half-life in data set [1] (po, 2 mg/kg, iv 1.0, po 2.0 mg/kg, PO) was 4.6 h.
On to `C/C(=N\OCc1ccc(OCC2CC2)c(C(F)(F)F)c1)c1ccc2c(c1)CCC2N1CC(C(=O)O)C1` (stereo not drawn) [Compound 33], for which, on S1P1, the EC50 was 2.98 nM and the Emax was 110%.
For `C/C(=N\OCc1ccc(OC(C)C)c(C(F)(F)F)c1)c1ccc2c(c1)CCC2N(C)CCC(=O)O` (stereo not drawn) [Compound 35] the same measures were 6.88 nM and 101%.
